Reference: US20260116847A1 (priority 2023, published 2026)
Values belong to the compound of their own block, whether it stands above or below them.

How the values were obtained:
[1] = system: tumor-specific antigens (CEA, CA 19/9, CA 125, prostate-specific antigen); conditions: meta-analysis of phase I/II trials, over 400 patients, solid tumors; cited from earlier work
[2] = system: kainic acid-induced status epilepticus model; conditions: mouse study; cited from earlier work
[3] = Thermogravimetric analysis (TGA); type: physicochemical; conditions: 10° C./min; for weight loss (TG): 25° C.-195° C.; for degradation temperature (TG): range 25° C.-320° C.
Experimental: Thermogravimetric analysis for the crystalline polymorphic form I, II and III was performed using a Mettler Toledo TGA/DSC1 apparatus. The sample was weighed in an aluminum pan closed with an aluminum cover with holes.
[…] […] The degradation occurred above 200° C. The TG analysis proves that the crystalline polymorphic form I of marimastat exists in the anhydrous form.
[…] […] The degradation occurred above 200° C. The TG analysis proves that the crystalline polymorphic form II of marimastat exists in the anhydrous form.
This sample was analyzed by TGA-EGA. The analysis was performed at a temperature of 25° C.-320° C. at a rate of 10° C./min. […] The degradation occurred above 200° C. The TG analysis proves that the crystalline polymorphic form III of marimastat exists in the anhydrous form.

[4] = Stability studies of solid forms under storage conditions, XRPD; type: physicochemical; conditions: 25° C./100% RH and 40° C./75% RH 7 days; 30°/100 mbar 1 hour; room temperature 1 year; above 150° C.
Experimental: Stability studies of the amorphous form, pure crystalline polymorphic forms I, II and III and the mixture of the crystalline polymorphic forms I and III were carried out under the following conditions: 25° C./100% RH (relative humidity) and 40° C./75% RH (relative humidity) for 7 days, at 30°/100 mbar for 1 hour, at room temperature for 1 year, and also at elevated temperature (above 150° C.).

[5] = Solubility tests in water; type: physicochemical; conditions: comparison of forms I, II and III
Experimental: Solubility tests were performed by dissolving samples of pure forms of marimastat in water.

[6] = Stability of the forms I, II and III stirred together in various solvents, XRPD; type: physicochemical; conditions: for thermodynamic stability of the form: maceration of the mixture of all three forms in different solvents, room temperature, 4 days; for XRPD form after stirring: 25 °C, 4 d
From the text: The remaining 7 solvents gave the initial mixture of three polymorphic forms. Thus, when using the mixture of all three forms for maceration in different solvents, complete disappearance of the form II and the form III, complete disappearance of the form II, or all three forms remaining in the mixture were observed. The complete disappearance of the form I was not observed in any of the experiments.

[7] = Microscopic examinations / bulk density; type: physicochemical; conditions: comparison of the forms
Experimental: Microscopic examinations were performed using an optical microscope or electron microscope.

[8] = Stability of the form II in various solvents at room temperature, XRPD; type: physicochemical; conditions: for XRPD form after stirring: 25 °C, 4 d
Experimental: The stability of the form II in various solvents at room temperature was tested. Experiments were performed by suspending the form II in 1 ml of solvent and the formed suspension was stirred at room temperature at 25° C. for 4 days. Then, the precipitate was filtered off and the samples were dried at a temperature of 30° C./100 mbar for one hour, followed by XRPD analysis.

Structure (SMILES): CNC(=O)[C@@H](NC(=O)[C@H](CC(C)C)[C@H](O)C(=O)NO)C(C)(C)C [Marimastat, (2R,3S)—N-1-((S)-3,3-dimethyl-1-methylamino-1-oxobutan-2-yl)-N-4,3-dihydroxy-2-isobutylsuccinamide]
- growth indicators of tumor-specific antigens [1]: significantly reduced all four growth indicators of tumor-specific antigens in a dose-dependent manner
- duration and number of seizures [2]: reduced the duration and number of seizures

- weight loss (TG) [3]: 0.4%
- degradation temperature (TG) [3]: above 200 °C
- stability by XRPD (changes in diffraction lines) [4]: stable
- rate of dissolution in water [5]: fastest soluble in water
- thermodynamic stability of the form [6]: kinetic forms
Structure (SMILES): CNC(=O)[C@@H](NC(=O)[C@H](CC(C)C)[C@H](O)C(=O)NO)C(C)(C)C [form III]

- weight loss (TG) [3]: 0.2%
- degradation temperature (TG) [3]: above 200 °C
- stability by XRPD (changes in diffraction lines) [4]: stable
- thermodynamic stability of the form [6]: kinetic forms
- bulk density [7]: highest and comparable bulk density
- XRPD form after stirring ([8]; 2-propanol, 30 mg/mL): Form II
- XRPD form after stirring ([8]; acetonitrile, 10 mg/mL): Form I
- XRPD form after stirring ([8]; butyl acetate, 10 mg/mL): Form Il
- XRPD form after stirring ([8]; ethanol, 10 mg/mL): Form II
- XRPD form after stirring ([8]; methanol, 110 mg/mL): Form I
- XRPD form after stirring ([8]; methylcyclohexane, 10 mg/mL): Form II
- XRPD form after stirring ([8]; methylene chloride, 20 mg/mL): Form II
- XRPD form after stirring ([8]; p-xylene, 20 mg/mL): Form II
- XRPD form after stirring ([8]; water, 30 mg/mL): Form II
Structure (SMILES): CNC(=O)[C@@H](NC(=O)[C@H](CC(C)C)[C@H](O)C(=O)NO)C(C)(C)C [form II]

- weight loss (TG) [3]: 0.3%
- degradation temperature (TG) [3]: above 200 °C
- stability by XRPD (changes in diffraction lines) [4]: stable
- rate of dissolution in water [5]: dissolves the slowest
- thermodynamic stability of the form [6]: most thermodynamically stable
- bulk density [7]: highest and comparable bulk density
- thermodynamic stability of the form ([8]; form II stirred in solvents, 25° C., 4 days): greatest thermodynamic stability
Structure (SMILES): CNC(=O)[C@@H](NC(=O)[C@H](CC(C)C)[C@H](O)C(=O)NO)C(C)(C)C [form I]

- stability by XRPD (changes in diffraction lines) [4]: stable
Structure (SMILES): CNC(=O)[C@@H](NC(=O)[C@H](CC(C)C)[C@H](O)C(=O)NO)C(C)(C)C [mixture of the forms I and III]

- XRPD form after stirring ([6]; 2-propanol, 30 mg/mL): Form I + Form III
- XRPD form after stirring ([6]; acetone, 10 mg/mL): Form I
- XRPD form after stirring ([6]; acetonitrile, 10 mg/mL): Form I
- XRPD form after stirring ([6]; butyl acetate, 10 mg/mL): Form I + Form II + Form III
- XRPD form after stirring ([6]; dimethoxyethane, 10 mg/mL): Form I
- XRPD form after stirring ([6]; ethanol, 10 mg/mL): Form I
- XRPD form after stirring ([6]; heptane, 10 mg/mL): Form I + Form II + Form III
- XRPD form after stirring ([6]; methanol, 110 mg/mL): Form I
- XRPD form after stirring ([6]; methyl isobutyl ketone, 10 mg/mL): Form I + Form II + Form III
- XRPD form after stirring ([6]; methyl tert-butyl ether, 10 mg/mL): Form I + Form III
- XRPD form after stirring ([6]; methylcyclohexane, 10 mg/mL): Form I + Form II + Form III
- XRPD form after stirring ([6]; methylene chloride, 10 mg/mL): Form I + Form II + Form III
- XRPD form after stirring ([6]; p-xylene, 10 mg/mL): Form I + Form II + Form III
- XRPD form after stirring ([6]; tetrahydrofuran, 10 mg/mL): Form I
- XRPD form after stirring ([6]; toluene, 10 mg/mL): Form I + Form II + Form III
- XRPD form after stirring ([6]; water, 30 mg/mL): Form I + Form III
Structure (SMILES): CNC(=O)[C@@H](NC(=O)[C@H](CC(C)C)[C@H](O)C(=O)NO)C(C)(C)C [mixture of three polymorphic forms]
